Reference: patent US12479812B2, “Fatty acid derivatives and their use” (THE UNITED STATES OF AMERICA, as represented by the …, priority 2017, dated 2025)

Tests used:
[1] = tested on: tumor necrosis factor (TNF)-alpha secretion, human PBMCs; test: PBMC cytokine secretion (ELISA): TNF-alpha; type: cell-based; conditions: 100 μM, 24 hours
Experimental: (§1) Freshly isolated human PBMCs were pre-incubated (FIGS. 11A and 11C) or not (FIGS. 11B and 11D) with LPS, and then incubated with ferulic acid (“FA,” 100 μM) and 11H-12,13E-LA, 11K-12,13E-LA, PBS, or LPS alone for 24 hours (blinded). Then, the medium concentration of TNF-alpha (FIGS. 11A and 11B) or […] (FIGS. 11C and 11D) was measured using enzyme-linked immunosorbent assay.

[2] = tested on: freshly isolated human PBMCs; test: ApoA1 cholesterol efflux screen in freshly isolated PBMCs; type: cell-based; conditions: 50 μM
[3] = tested on: adult rat dorsal root ganglia (DRG) neurons; test: Ex vivo CGRP release assay in adult rat sensory neuronal cultures; type: cell-based; conditions: 1 μM
Experimental: For release experiments, the work was approved by the Animal Care and Use Committee at Indiana University School of Medicine, Indianapolis, IN. Adult rat sensory neuronal cultures were prepared as previously described (Burkey, Hingtgen, and Vasko, Methods in molecular medicine 99, 189, 2004; Kelley et al., PloS one 9, e106485, 2014). Cells were maintained for 10-12 days in F-12 media (Invitrogen, Carlsbad, CA) supplemented with 10% horse serum, 2 mM glutamine, 100 μg/ml normocin™, 50 μg/ml penicillin, 50 μg/ml streptomycin, 50 μM 5-fluoro-2′-deoxyuridine (Invitrogen), 150 μM uridine, and 30 ng/ml of NGF (Harlan Bioproducts for Science, Inc. Indianapolis, IN) in 3% CO2 at 37° C. On the day of the release experiments, cultures were washed with HEPES buffer (25 mM HEPES, 135 mM NaCl, 3.5 mM KCl, 2.5 mM CaCl2, 1 mM MgCl2, 3.3 mM D-glucose, and 0.1% bovine serum albumin, pH 7.4 and maintained at 37° C. Cultures were then incubated with 0.4 ml of the same buffer in the absence or presence of drugs. Basal release was determined by exposing the cells to HEPES buffer alone for 10 min, then to buffer in the presence of mediators for 10 min to ascertain if the compounds stimulated release. Cultures were then exposed to buffer containing 30 nM capsaicin or buffer with the pH adjusted to 6.0 in the absence or presence of mediators. Cells then were re-exposed to HEPES buffer without drugs for a 10 min incubation to reestablish basal release. After each incubation, the buffer was removed to measure the amount of CGRP using radioimmunoassay as previously described (Chen et al., Peptides 17, 31, 1996). At the end of each release experiment, cells were hypotonically lysed by exposing the cultures to 0.1 M HCl for 10 min and an aliquot taken to measure total CGRP content in the cultures using radioimmunoassay. […] Release data are presented in fmol/well of cell/10 min from three independent experiments from separate harvests. Statistical analysis was performed using ANOVA with Tukey's post hoc test.

[4] = tested on: interleukin (IL)-1, human PBMCs; test: PBMC cytokine secretion (ELISA): IL-1; type: cell-based; conditions: 100 μM; with or without LPS; 24 hours
Experimental: as §1

human THP-1 cells = test: ApoA1 cholesterol efflux screen in THP-1 cells; type: cell-based; conditions: 50 μM; THP-1 cells incubated with ApoA1
Experimental: Human THP-1 cells were incubated with ApoA1 in the presence of linoleic acid or several different fatty acid derivatives (50 μM) in a blinded manner, and resulting cholesterol efflux was measured (FIG. 9) as previously described (PMID: 26879139).

[5] = tested on: murine trigeminal sensory neurons; test: Ca2+ responses in cultured trigeminal sensory neurons; type: cell-based, mouse; conditions: FIG. 7B
Experimental: Additionally, murine trigeminal sensory neurons were isolated and cultured in vitro. Fatty acid derivatives were applied to the cultured neurons and any resulting Ca^2+ response was measured in a blinded manner. The assayed compounds include: 11H-12,13E-LA (Compound 1), 11K-12,13E-LA (Compound 2), 11H-9,10E-LA (Compound 3), and 11K-9,10E-LA (Compound 4).

male Sprague-Dawley rats = test: Nociceptive (pain) behavior after intradermal hindpaw injection; type: in vivo, rat; conditions: after intradermal hindpaw injection (11H-12,13E-LA 30 μg), versus vehicle
Experimental: 11-hydroxy-12,13-trans-epoxy-(9Z)-octadecenoate (30 μg) was injected intradermally into the hindpaw of male Sprague-Dawley rats. Baseline measurements were taken for all tests prior to injection. A-delta and C-fiber mediated hindpaw withdrawal responses were measured as previously described (Mitchell et al., Pain 155, 733, 2014). Briefly, by stimulation of the plantar surface of the paw with a 100 ms laser pulse, producing a rapid withdrawal response. Laser pulses were delivered by an infrared diode laser (LASS-10 M; Lasmed, Mountain View, CA, USA) and calibrated to 3500 mA at 0.5 mm diameter, and delivered from 1 cm distance, C-fiber mediated responses were measured by delivery of a slow temperature ramp to the plantar surface of the hindpaw, with stimulus termination by voluntary withdrawal of the paw. The laser stimulus was adjusted to result in an approximately 10 second withdrawal latency (1000 mA, 13 cm distance).

CCCCCC1OC1C(O)/C=C\CCCCCCCC(=O)O (stereo not drawn) [11H-12,13E-LA, 11-hydroxy(H)-12,13-trans-epoxy-(E)-octadecenoate]
LPS-induced TNF-alpha secretion ([1]; LPS pre-incubation): inhibits | native TNF-alpha secretion ([1]; no LPS): inhibits | ApoA1-mediated monocyte cholesterol efflux [2]: inhibited | capsaicin-evoked CGRP release ([3]; 30 nM capsaicin): significantly augmented | low-pH-evoked CGRP release ([3]; buffer pH adjusted to 6.0): significantly augmented | IL-1 secretion [4]: has no effect | ApoA1-mediated monocyte cholesterol efflux (human THP-1 cells): inhibited | number of trigeminal cells responding, concentration-response [5]: increase in the number of cells responding | decrease of C-fiber withdrawal latencies (male Sprague-Dawley rats): 28%
